Assay results taken from patent US20200268716A1, “LULICONAZOLE AS ANTI-ACANTHAMOEBA AGENT AND METHOD FOR PRODUCING THE SAME” (Pola Pharma Inc., priority 2015, published 2020).
Converted amounts (≈) assume the structure as drawn.

What was measured:
[1] = system: Acanthamoeba polyphaga (A. polyphaga); assay: Growth inhibition of Acanthamoeba polyphaga by solid luliconazole crystals (1 mg added to culture); format: cell-based; details: 1 mg of solid crystals added after 48 hours preculture; 25° C., 72 hours
Protocol: The anti-Acanthamoeba activities of the crystals in Examples 2 to 6 were examined based on the method in Example 1. In other words, Acanthamoeba polyphaga (A. polyphaga) of which the number of the amoebae was 50,000 with respect to 4.5 mL of ATCC712 medium was dispersed and seeded in 500 μL of medium, and was preliminarily cultured at 25° C. for 48 hours. To the resultant, 1 mg of each of the crystals in Examples 2 to 6 was added to prepare a control and samples. The culture was further continued at 25° C. for 72 hours, and the number of the amoebae in the culture liquid was measured by a Neubauer counting chamber. The control, to which nothing was added, and in which the amoebae were cultured, was used. Growth inhibition rates were calculated from the counted values according to an expression of [(the number of amoebae in control−the number of amoebae in each sample)/the number of amoebae in control]×100.

[2] = system: Acanthamoeba polyphaga (A. polyphaga; clinical isolate); assay: Growth inhibition of Acanthamoeba polyphaga by luliconazole in solution (methanol specimen), amoebae counted in a Neubauer counting chamber; format: cell-based; details: 25° C., 72 hours
Protocol: Acanthamoeba polyphaga (A. polyphaga; clinical isolate) was cultured in an ATCC712 medium (hereinafter simply referred to as medium) at 25° C. for 1 week, and the medium was adjusted by adding a medium so that the number of the amoebae was 100,000 amoebae/mL, to make a preculture liquid. A control and samples were prepared by adding 4.3 mL of medium, 200 μL of specimen, and 500 μL of preculture liquid. The amoebae were cultured at 25° C. for 72 hours, and the number of the amoebae was counted by a Neubauer counting chamber.
Luliconazole used in the specimen was obtained as described below. A compound was synthesized according to a method described in Japanese Patent Laid-Open No. 60-218387, an ethyl acetate/normal hexane mixture (5:1) was added, and the resultant was warmed at 60° C. and dissolved under stirring. Crystals were precipitated while stirring the resultant in cooling water at 5° C., were filtered, and dried by sending air at 40° C. for 48 hours to obtain the crystals.
The specimen was prepared using methanol as a solvent so that the final concentration of luliconazole was 0, 5, 10, 20, or 40 μg/mL. The specimen in which the final concentration of luliconazole was 0 μg/mL was used as the control.
Growth inhibition rates were determined based on [(the number of amoebae in control−the number of amoebae in each sample)/the number of amoebae in control]×100. MIC and IC50 were calculated based on the growth inhibition rates by a usual method. MIC was 40 μg/mL, and IC50 was 20 μg/mL.

[3] = calculated from growth inhibition rates

N#C/C(=C1/SC[C@@H](c2ccc(Cl)cc2Cl)S1)n1ccnc1 [Crystal in Example 2, luliconazole]
Growth Inhibition Rate (%) [1]: 66.7%

N#C/C(=C1/SC[C@@H](c2ccc(Cl)cc2Cl)S1)n1ccnc1 [Crystal in Example 3, luliconazole]
Growth Inhibition Rate (%) [1]: 25.9%

N#C/C(=C1/SC[C@@H](c2ccc(Cl)cc2Cl)S1)n1ccnc1 [Crystal in Example 4, luliconazole]
Growth Inhibition Rate (%) [1]: 69.6%

N#C/C(=C1/SC[C@@H](c2ccc(Cl)cc2Cl)S1)n1ccnc1 [Crystal in Example 5, luliconazole]
Growth Inhibition Rate (%) [1]: 77.0%

N#C/C(=C1/SC[C@@H](c2ccc(Cl)cc2Cl)S1)n1ccnc1 [Crystal in Example 6, luliconazole]
Growth Inhibition Rate (%) [1]: 54.8%

N#C/C(=C1/SC[C@@H](c2ccc(Cl)cc2Cl)S1)n1ccnc1 [luliconazole]
IC50 [2, 3]: 20 µg/mL (≈ 56.5 µM)
MIC [2, 3]: 40 µg/mL (≈ 113 µM)
inhibition at 5 µg/mL ([2]; luliconazole final concentration 5 μg/mL, ATCC712 medium, read-out: Inhibition Rate (%)): 20%
inhibition at 10 µg/mL ([2]; luliconazole final concentration 10 μg/mL, ATCC712 medium, read-out: Inhibition Rate (%)): 40%
inhibition at 20 µg/mL ([2]; luliconazole final concentration 20 μg/mL, ATCC712 medium, read-out: Inhibition Rate (%)): 50%
inhibition at 40 µg/mL ([2]; luliconazole final concentration 40 μg/mL, ATCC712 medium, read-out: Inhibition Rate (%)): 95%
